This assay deals with Elongator complex protein 1 (ELP1, also referred to as IKBKAP). The experiment in a line: IKBKAP-HTRF Assay. Format: cell-based, human. Conditions: FD patient-derived fibroblasts GM04589, 48 hours incubation; for EC2x for IKBKAP protein expression (concentration producing two times the amount of IKBKAP protein vs DMSO vehicle control): 7-point concentration curve; for MFI (maximum fold increase in IKBKAP protein abundance relative to the vehicle control): HTRF. The gist of the method:
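FD patient cells in DMEM-10% FBS were treated 48 hours at 37 °C with a 7-point, 3.16-fold compound series in triplicate, then lysed. IKBKAP was quantified by sandwich HTRF with two anti-IKAP antibodies, incubated overnight at 4 °C and read at 665/620 nm. MFI is AF relative to vehicle, and EC2× is the concentration doubling IKBKAP versus DMSO.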

Data on 9 compounds can be found in US20230057568A1, “COMPOUNDS FOR TREATING FAMILIAL DYSAUTONOMIA” (PTC THERAPEUTICS, INC., priority 2019, published 2023).

Take `Cc1c(C[C@@H](N)CCF)sc2c(NCc3ccco3)nc(Cl)nc12` [Cpd 51, 6-[(2S)-2-amino-4-fluorobutyl]-2-chloro-N-[(furan-2-yl)methyl]-7-methylthieno[3,2-d]pyrimidin-4-amine]: the “EC2x for IKBKAP protein expression (concentration producing two times the amount of IKBKAP protein vs DMSO vehicle control)” value is reported as “***** (<0.005 μM)” and the “MFI (maximum fold increase in IKBKAP protein abundance relative to the vehicle control)” value is reported as “***** (>4.9)”.

`CC[C@H](C)[C@H](N)Cc1cc2nc(Cl)nc(NCc3ccco3)c2s1` [Cpd 6, 6-[(2R,3S)-2-amino-3-methylpentyl]-2-chloro-N-[(furan-2-yl)methyl]thieno[3,2-d]pyrimidin-4-amine]: the “EC2x for IKBKAP protein expression (concentration producing two times the amount of IKBKAP protein vs DMSO vehicle control)” value is “*** (between >0.02 μM and ≤0.5 μM)”; the “MFI (maximum fold increase in IKBKAP protein abundance relative to the vehicle control)” value was “*** (between >2.9 and <3.9)”.

In the case of `Cc1c(C[C@H](C)N)sc2c(NCc3sccc3F)nc(Cl)nc12` [Cpd 90, 6-[(2S)-2-aminopropyl]-2-chloro-N-[(3-fluorothiophen-2-yl)methyl]-7-methylthieno[3,2-d]pyrimidin-4-amine], the “EC2x for IKBKAP protein expression (concentration producing two times the amount of IKBKAP protein vs DMSO vehicle control)” value is recorded as “***** (<0.005 μM)” and the “MFI (maximum fold increase in IKBKAP protein abundance relative to the vehicle control)” value is “***** (>4.9)”.

Regarding `C[C@H](N)Cc1sc2c(NCc3ccco3)nc(Cl)nc2c1C1CC1` [Cpd 36, 6-[(2S)-2-aminopropyl]-2-chloro-7-cyclopropyl-N-[(furan-2-yl)methyl]thieno[3,2-d]pyrimidin-4-amine], the “EC2x for IKBKAP protein expression (concentration producing two times the amount of IKBKAP protein vs DMSO vehicle control)” value is “**** (between >0.005 μM and ≤0.02 μM)”; the “MFI (maximum fold increase in IKBKAP protein abundance relative to the vehicle control)” value was “***** (>4.9)”.

With `Cc1c(CCCO)sc2c(NCc3ccco3)nc(Cl)nc12` [Cpd 63, 3-(2-chloro-4-{[(furan-2-yl)methyl]amino}-7-methylthieno[3,2-d]pyrimidin-6-yl)propan-l-ol], the “EC2x for IKBKAP protein expression (concentration producing two times the amount of IKBKAP protein vs DMSO vehicle control)” value is recorded as “* (EC2×>1 μM)” and the “MFI (maximum fold increase in IKBKAP protein abundance relative to the vehicle control)” value is reported as “* (MFI<1.9)”.

On to `Cc1c(C[C@H](C)N)sc2c(NCc3cccnc3F)nc(Cl)nc12` [Cpd 60, 6-[(2S)-2-aminopropyl]-2-chloro-N-[(2-fluoropyridin-3-yl)methyl]-7-methylthieno[3,2-d]pyrimidin-4-amine], for which the “EC2x for IKBKAP protein expression (concentration producing two times the amount of IKBKAP protein vs DMSO vehicle control)” value was “*** (between >0.02 μM and ≤0.5 μM)”; the “MFI (maximum fold increase in IKBKAP protein abundance relative to the vehicle control)” value is “*** (between >2.9 and <3.9)”.

As for `COc1ccc(-c2c(C[C@H](C)N)sc3c(NCc4ccco4)nc(Cl)nc23)cc1` [Cpd 65, 6-[(2S)-2-aminopropyl]-2-chloro-N-[(furan-2-yl)methyl]-7-(4-methoxyphenyl)thieno[3,2-d]pyrimidin-4-amine], the “EC2x for IKBKAP protein expression (concentration producing two times the amount of IKBKAP protein vs DMSO vehicle control)” value is “* (EC2×>1 μM)” and the “MFI (maximum fold increase in IKBKAP protein abundance relative to the vehicle control)” value is listed as “* (MFI<1.9)”.

Regarding `Cc1c(C[C@H](C)N)sc2c(NCc3ncc(F)s3)nc(Cl)nc12` [Cpd 93, 6-[(2S)-2-aminopropyl]-2-chloro-N-[(5-fluoro-1,3-thiazol-2-yl)methyl]-7-methylthieno[3,2-d]pyrimidin-4-amine], the “EC2x for IKBKAP protein expression (concentration producing two times the amount of IKBKAP protein vs DMSO vehicle control)” value is “**** (between >0.005 μM and ≤0.02 μM)”; the “MFI (maximum fold increase in IKBKAP protein abundance relative to the vehicle control)” value was “***** (>4.9)”.

As for `Cc1ccoc1CNc1nc(Cl)nc2c(C)c(C[C@H](C)N)sc12` [Cpd 30, 6-[(2S)-2-aminopropyl]-2-chloro-7-methyl-N-[(3-methylfuran-2-yl)methyl]thieno[3,2-d]pyrimidin-4-amine], the “EC2x for IKBKAP protein expression (concentration producing two times the amount of IKBKAP protein vs DMSO vehicle control)” value is “*** (between >0.02 μM and ≤0.5 μM)”; the “MFI (maximum fold increase in IKBKAP protein abundance relative to the vehicle control)” value is “**** (between >3.9 and <4.9)”.
